IC50 and pA2 data for 35 compounds are collected here from ChEMBL document CHEMBL1149183, “Novel benzo[1,4]diazepin-2-one derivatives as endothelin receptor antagonists” (J Med Chem, 2004).

One experiment deals with T1, Endothelin-1 receptor (Homo sapiens, UniProt P25101).
T1 sequence (P25101 whole entry): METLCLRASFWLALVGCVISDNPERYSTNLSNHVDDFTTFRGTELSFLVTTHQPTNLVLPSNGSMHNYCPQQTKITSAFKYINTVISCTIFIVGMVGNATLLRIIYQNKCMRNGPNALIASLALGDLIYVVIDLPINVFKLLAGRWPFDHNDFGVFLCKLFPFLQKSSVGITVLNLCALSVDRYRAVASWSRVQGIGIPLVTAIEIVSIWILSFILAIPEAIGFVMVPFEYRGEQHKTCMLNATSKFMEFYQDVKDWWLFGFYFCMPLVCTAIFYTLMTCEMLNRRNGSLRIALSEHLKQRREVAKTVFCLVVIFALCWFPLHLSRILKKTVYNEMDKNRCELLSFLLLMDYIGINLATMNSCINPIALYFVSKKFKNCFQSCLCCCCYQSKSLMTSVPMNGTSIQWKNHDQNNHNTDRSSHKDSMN
In words: Antagonist activity towards human recombinant Endothelin A receptor expressed in chinese hamster ovary (CHO) cells determined using [125I]ET1 as radioligand. The format is functional, cell-based.

Experiment [1] addresses T2, Endothelin receptor type B (Homo sapiens, UniProt P24530).
T2 sequence (P24530 whole entry): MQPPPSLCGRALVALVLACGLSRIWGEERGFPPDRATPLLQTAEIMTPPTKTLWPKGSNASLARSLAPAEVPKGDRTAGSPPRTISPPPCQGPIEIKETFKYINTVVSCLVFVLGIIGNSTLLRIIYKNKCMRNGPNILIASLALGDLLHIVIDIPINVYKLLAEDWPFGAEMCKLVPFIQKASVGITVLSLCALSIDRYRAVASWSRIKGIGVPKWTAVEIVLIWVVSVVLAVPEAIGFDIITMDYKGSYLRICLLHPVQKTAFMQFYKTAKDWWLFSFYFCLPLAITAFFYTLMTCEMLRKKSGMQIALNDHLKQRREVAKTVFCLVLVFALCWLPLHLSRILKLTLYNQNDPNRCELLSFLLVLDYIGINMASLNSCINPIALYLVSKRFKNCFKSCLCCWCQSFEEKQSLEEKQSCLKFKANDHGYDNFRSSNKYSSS
In words: Antagonist activity towards human recombinant Endothelin B receptor expressed in chinese hamster ovary (CHO) cells determined using [125I]ET1 as radioligand. The format is functional, cell-based.

The target in the next experiment is T3, Endothelin receptor (Rattus norvegicus, UniProt P26684+P21451).
T3 sequence (P26684 whole entry): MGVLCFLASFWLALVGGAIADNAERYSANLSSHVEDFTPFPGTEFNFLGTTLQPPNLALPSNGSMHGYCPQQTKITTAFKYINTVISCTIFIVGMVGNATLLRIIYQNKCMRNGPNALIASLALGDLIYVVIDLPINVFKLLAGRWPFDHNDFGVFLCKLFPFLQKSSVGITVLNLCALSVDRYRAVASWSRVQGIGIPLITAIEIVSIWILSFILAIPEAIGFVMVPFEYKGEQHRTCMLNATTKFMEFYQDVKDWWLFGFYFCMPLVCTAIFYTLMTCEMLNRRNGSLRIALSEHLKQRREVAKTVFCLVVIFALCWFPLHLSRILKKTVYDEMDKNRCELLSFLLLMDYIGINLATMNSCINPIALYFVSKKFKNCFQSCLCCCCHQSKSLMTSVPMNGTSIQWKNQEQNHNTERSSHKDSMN
T3 sequence (P21451 whole entry): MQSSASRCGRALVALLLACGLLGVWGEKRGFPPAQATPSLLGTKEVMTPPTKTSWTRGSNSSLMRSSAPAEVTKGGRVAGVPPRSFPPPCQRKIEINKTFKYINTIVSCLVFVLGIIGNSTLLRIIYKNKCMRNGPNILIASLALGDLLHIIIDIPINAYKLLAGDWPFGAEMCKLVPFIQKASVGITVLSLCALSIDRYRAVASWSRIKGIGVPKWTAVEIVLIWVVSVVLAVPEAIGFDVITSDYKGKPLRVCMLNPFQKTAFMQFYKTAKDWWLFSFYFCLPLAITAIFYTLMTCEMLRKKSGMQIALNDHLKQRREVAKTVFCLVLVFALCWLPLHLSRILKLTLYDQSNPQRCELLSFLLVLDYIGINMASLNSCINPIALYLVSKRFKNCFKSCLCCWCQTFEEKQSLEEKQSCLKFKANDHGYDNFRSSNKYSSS
In words: Inhibitory potency at native endothelin A and endothelin B receptors by inhibiting endothelin-1 contractions of rat aortic rings. In kind it is functional.

Bounds are passed on as bounds.

For orientation: IC50 means the concentration that gives 50% inhibition. For the compound `CSc1cnc(O[C@H](C(=O)O)[C@@]2(c3ccccc3)NCC(=O)N(C)c3ccccc32)nc1` (racemic), the figures for the half-maximal inhibitory concentration (IC50) (at Endothelin-1 receptor; in experiment [1]) were 6600 nM and more than 10000 nM, respectively.

As a reminder, the pA2 is the negative logarithm of the molar antagonist concentration that doubles the agonist concentration needed for the same response. Low values mean lower antagonist potency, high ones higher antagonist potency. In the case of `COC(=O)c1ccc(CN2C(=O)CN[C@](c3ccccc3)([C@H](Oc3nc(C)cc(C)n3)C(=O)O)c3ccccc32)cc1` (racemic), the IC50 was found to be 7.4 nM on Endothelin-1 receptor and 70.3 nM in experiment [1]. Moreover, at Endothelin receptor, the pA2 is listed as 6.98.

Regarding `COc1ccc(CN2C(=O)CN[C@](c3cccc(-c4ccccc4)c3)([C@H](Oc3nc(C)cc(C)n3)C(=O)O)c3ccccc32)cc1` (racemic), the figures for the IC50 (at Endothelin-1 receptor; in experiment [1]) were 3 nM and 86.8 nM, respectively. For the same compound, the pA2 on Endothelin receptor was 7.28.

As to `COc1ccc(CN2C(=O)CN[C@](c3cccc(OC)c3)([C@H](Oc3nc(C)cc(C)n3)C(=O)O)c3ccccc32)cc1` (racemic), the IC50 stood at 10.2 nM at Endothelin-1 receptor and 94.3 nM in experiment [1].

`COc1ccc(CN2C(=O)CN[C@](c3ccccc3)([C@H](Oc3nc(C)cc(C)n3)C(=O)O)c3ccccc32)cc1` (racemic) registered a pA2 on Endothelin receptor of 7.08. The IC50 in experiment [1] was determined as 22.4 nM.

`CCc1cc(CC)nc(O[C@H](C(=O)O)[C@@]2(c3ccccc3)NCC(=O)N(C)c3ccccc32)n1` (racemic): the IC50 at Endothelin-1 receptor was found to be 20.5 nM; in experiment [1], 654 nM.

`COc1cnc(O[C@H](C(=O)O)[C@@]2(c3ccccc3)NCC(=O)N(C)c3ccccc32)nc1` (racemic): the results for the IC50 (on Endothelin-1 receptor; in experiment [1]) were 384 nM and 9250 nM, respectively.

On to `Cc1cc(C)nc(O[C@H](C(=O)O)[C@@]2(c3ccccc3)NCC(=O)N(Cc3cccc(Cl)c3)c3ccccc32)n1` (racemic), for which the IC50 at Endothelin-1 receptor is 5.8 nM; in experiment [1], 21.4 nM.

Turning to `COc1ccc(CN2C(=O)CN[C@](C3CCCCC3)([C@H](Oc3nc(C)cc(C)n3)C(=O)O)c3ccccc32)cc1` (racemic), the values for the IC50 (at Endothelin-1 receptor; in experiment [1]) were 112 nM and 105 nM, respectively.

For `CCCCC[C@]1([C@H](Oc2nc(C)cc(C)n2)C(=O)O)NCC(=O)N(Cc2ccc(OC)cc2)c2ccccc21` (racemic), the IC50 came out at 355 nM at Endothelin-1 receptor and 73.6 nM in experiment [1].

Consider `Cc1cc(C)nc(O[C@H](C(=O)O)[C@@]2(c3ccccc3)NCc3c(C(=O)O)nc(C)n3-c3ccccc32)n1` (racemic), for which the figures for the IC50 (at Endothelin-1 receptor; in experiment [1]) were 604 nM and 711 nM, respectively.

With `Cc1cc(C)nc(O[C@H](C(=O)O)[C@@]2(c3ccccc3)NCC(=O)N(CCCC(=O)O)c3ccccc32)n1` (racemic), the IC50 worked out at 45.9 nM at Endothelin-1 receptor and 253 nM in experiment [1].

For `Cc1cc(C)nc(O[C@H](C(=O)O)[C@@]2(c3ccccc3)NCC(=O)N(Cc3cc(F)c(F)cc3F)c3ccccc32)n1` (racemic), the IC50 at Endothelin-1 receptor came to 7.2 nM; in experiment [1], 72.7 nM.

On to `Cc1cc(C)nc(O[C@H](C(=O)O)[C@@]2(c3ccccc3)NCC(=O)N(Cc3ccc(F)c(F)c3)c3ccccc32)n1` (racemic), for which the IC50 on Endothelin-1 receptor was found to be 6.5 nM; in experiment [1], 32.8 nM.

Consider `Cc1cc(C)nc(O[C@H](C(=O)O)[C@@]2(c3ccccc3)NCC(=O)N(Cc3c(F)cccc3Cl)c3ccccc32)n1` (racemic), for which the pA2 at Endothelin receptor was 7.8. Moreover, the IC50 in experiment [1] is 10.9 nM.

For the compound `Cc1cc(C)nc(O[C@H](C(=O)O)[C@@]2(c3ccccc3)NCC(=O)N(Cc3ccc(OC(F)(F)F)cc3)c3ccccc32)n1` (racemic), the IC50 on Endothelin-1 receptor was 2.5 nM; in experiment [1], 32.2 nM. Moreover, the pA2 at Endothelin receptor stood at 7.59.

As for `Cc1cc(C)nc(O[C@H](C(=O)O)[C@@]2(c3ccccc3)NCC(=O)N(Cc3ccc(C(F)(F)F)cc3)c3ccccc32)n1` (racemic), the 50% inhibitory concentration (IC50) on Endothelin-1 receptor amounted to 17 nM; in experiment [1], 47.1 nM.

Turning to `Cc1cccc(CN2C(=O)CN[C@](c3ccccc3)([C@H](Oc3nc(C)cc(C)n3)C(=O)O)c3ccccc32)c1` (racemic), the figures for the IC50 (at Endothelin-1 receptor; in experiment [1]) were 5 nM and 16.7 nM, respectively.

As to `Cc1cc(C)nc(O[C@H](C(=O)O)[C@@]2(c3ccccc3)NCC(=O)N(Cc3cc(F)ccc3F)c3ccccc32)n1` (racemic), the concentration for half-maximal inhibition (IC50) on Endothelin-1 receptor worked out at 6.7 nM; in experiment [1], 32.9 nM.

Take `Cc1cc(C)nc(O[C@H](C(=O)O)[C@@]2(c3ccccc3)NCC(=O)N(Cc3ccc(-c4ccccc4)cc3)c3ccccc32)n1` (racemic): the IC50 is 102 nM at Endothelin-1 receptor and 534 nM in experiment [1].

As for `COc1cccc(O[C@H](C(=O)O)[C@@]2(c3ccccc3)NCC(=O)N(Cc3c(Cl)cccc3Cl)c3ccccc32)c1` (racemic), the IC50 on Endothelin-1 receptor amounted to 129 nM; in experiment [1], 1470 nM.

As to `Cc1ccc(O[C@H](C(=O)O)[C@@]2(c3ccccc3)NCC(=O)N(Cc3c(Cl)cccc3Cl)c3ccccc32)cc1` (racemic), the figures for the IC50 (on Endothelin-1 receptor; in experiment [1]) were 156 nM and 966 nM, respectively.

For the compound `Cc1cc(C)nc(O[C@H](C(=O)O)[C@@]2(c3ccccc3)NCC(=O)N(CCC3CCCCC3)c3ccccc32)n1` (racemic), the IC50 is 146 nM at Endothelin-1 receptor and 153 nM in experiment [1].

As for `Cc1cc(C)nc(O[C@H](C(=O)O)[C@@]2(c3ccccc3)NCC(=O)N(Cc3cc(F)c(F)c(F)c3)c3ccccc32)n1` (racemic), the results for the IC50 (on Endothelin-1 receptor; in experiment [1]) were 11.8 nM and 25.3 nM, respectively.

As to `Cc1cccc(O[C@H](C(=O)O)[C@@]2(c3ccccc3)NCC(=O)N(Cc3c(Cl)cccc3Cl)c3ccccc32)c1` (racemic), the IC50 was 29 nM at Endothelin-1 receptor and 745 nM in experiment [1].

On to `COc1ccc(CN2C(=O)CN[C@](c3ccc(F)c(C)c3)([C@H](Oc3nc(C)cc(C)n3)C(=O)O)c3ccccc32)cc1` (racemic), for which the IC50 at Endothelin-1 receptor was 7.3 nM; in experiment [1] it was 33.2 nM. Further, the pA2 on Endothelin receptor stood at 6.53.

As to `COc1cc(OC)cc(O[C@H](C(=O)O)[C@@]2(c3ccccc3)NCC(=O)N(C)c3ccc(Cl)cc32)c1` (racemic), the figures for the IC50 (at Endothelin-1 receptor; in experiment [1]) were 262 nM and 1810 nM, respectively.

For the compound `Cc1cc(C)nc(O[C@H](C(=O)O)[C@@]2(c3ccccc3)NCC(=O)N(CCc3ccccc3)c3ccccc32)n1` (racemic), the values for the IC50 (on Endothelin-1 receptor; in experiment [1]) were 3.9 nM and 21.5 nM, respectively. Also, the pA2 at Endothelin receptor was found to be 7.46.

Regarding `Cc1cc(C)nc(O[C@H](C(=O)O)[C@@]2(c3ccccc3)NCC(=O)N(CCN3CCOCC3)c3ccccc32)n1` (racemic), the IC50 on Endothelin-1 receptor came out at 126 nM; in experiment [1], 743 nM.

As to `COc1ccc(CN2C(=O)CN[C@](c3cccc(Cl)c3)([C@H](Oc3nc(C)cc(C)n3)C(=O)O)c3ccccc32)cc1` (racemic), the results for the IC50 (on Endothelin-1 receptor; in experiment [1]) were 25 nM and 78.2 nM, respectively.

With `Cc1cc(C)nc(O[C@H](C(=O)O)[C@@]2(c3ccccc3)NCCCc3ccccc32)n1` (racemic), the values for the 50% inhibitory concentration (IC50) (on Endothelin-1 receptor; in experiment [1]) were 91.7 nM and 7840 nM, respectively.

Turning to `Cc1cc(C)nc(O[C@H](C(=O)O)[C@@]2(c3ccccc3)NCC(=O)N(Cc3ccccc3OC(F)(F)F)c3ccccc32)n1` (racemic), the IC50 at Endothelin-1 receptor was found to be 98.6 nM; in experiment [1] it was 74.9 nM.

Turning to `Cc1cc(C)nc(O[C@H](C(=O)O)[C@@]2(c3ccccc3)NCC(=O)N(Cc3cccc(OC(F)(F)F)c3)c3ccccc32)n1` (racemic), the IC50 at Endothelin-1 receptor was determined as 11 nM; in experiment [1], 30.8 nM.

Regarding `Cc1cc(C)nc(O[C@H](C(=O)O)[C@@]2(c3ccccc3)NCC(=O)N(Cc3ccccc3F)c3ccccc32)n1` (racemic), the IC50 is 3.5 nM on Endothelin-1 receptor and 33.1 nM in experiment [1]. On Endothelin receptor, the pA2 came to 7.22.

As for `Cc1cc(C)nc(O[C@H](C(=O)O)[C@@]2(c3ccccc3)NCCOc3ccccc32)n1` (racemic), the 50% inhibitory concentration (IC50) worked out at 69.8 nM on Endothelin-1 receptor and 3640 nM in experiment [1].
